# Source: patent publication US20210261636A1, “NEOANTIGENS EXPRESSED IN MULTIPLE MYELOMA AND THEIR USES” (Janssen Biotech, Inc., priority 2020, published 2021)
# Key:
# CD8+ T cells = assay: Exogenous autologous healthy donor restimulation assay, TNFα and IFNγ production by CD8+ T cells; format: cell-based, human; parameters: Frequency (TNFα+ IFNγ+ CD8 T cells): unit not given here; conditions: for Fold change (CD8+) vs. DMSO: maximum CD8+ T-cell response (TNFα and IFNγ); for Fold change (CD8+) vs. DMSO / Frequency (TNFα+ IFNγ+ CD8 T cells): donor independent, peptide pool 10 μg/mL, healthy donors; for Frequency (TNFα+ IFNγ+ CD8 T cells): maximum CD8+ T-cell response; for Immunogenic (yes/no): positive if CD8+ and/or CD4+ double positive TNFα/IFNγ frequency >=3-fold over DMSO and at least 0.01%
# Experimental: (§1) Immunogenicity responses were measured by estimating TNFα IFNγ double positive cells in the CD4+ and/or CD8+ T-cell populations. A response is considered positive if TNFα IFNγ double positive fraction was greater than or equal to three-fold over unstimulated cells (DMSO negative control) with a minimum frequency >=0.01%. […]
# (§2) Overlapping 15-mer peptides were designed to span each indicated neoantigen. Their ability to activate T cells was assessed using known methods, such as the assay defnied as exogenous autologous normal donor restimulation assay. The peptides were used as pools using TNFα and IFNγ production by CD8^+ and CD4^+ T cells as a readout. Maximum frequency of CD8^+TNFα^+IFNγ^+ and CD4^+TNFα^+IFNγ^+ T cells and maximum fold change over background for each pool of peptides were analyzed, which were calculated as the highest frequency of CD8^+ TNFα^+IFNγ^+ and CD4^+ TNFα^+IFNγ^+ T cells and resulting fold change across the normal donors evaluated for the peptide.
# (§3) CD1c+Dendritic Cells (CD1c+DC) isolated from human healthy PBMCs were thawed using media (IMDM (Gibco) supplemented with glutamine, HEPES, 5% human serum (Sigma), and 1× Pen-Strep). DC cells were resuspended in media supplemented with IL-4 (Peprotech, 20 ng/mL) and GM-CSF (Gibco, 20 ng/mL), plated in 6 well microplates, and rested overnight at 37° C. and 5% CO2 incubator. The following day, DC cells were counted and plated in a 96 well round bottom microplate at a concentration of 30,000 viable cells per well. Lyophilized neoantigen peptide pools (15-mer peptides with 8-mer overlapping peptide sequences) were solubilized in 100% DMSO with a stock concentration of 20 mg/mL Neoantigen peptides pools were added to DCs for a final concentration of 10 μg/mL and rested for 2 hours at 37° C. and 5% CO2 incubator. CEF Peptide Pool “Plus” (Cellular Technologies, Ltd.) was utilized as a positive control (each viral peptide at a final concentration of 4 ug/ml) and DMSO at the same final concentration (0.05%) as the experimental peptides was utilized as a negative control. After 2 hours, DC cells were irradiated with 50 gray of ionizing radiation. Autologous CD3+ Pan-T cells isolated from human normal PBMCs were thawed using media. Following irradiation, autologous Pan-T cells were added to the irradiated DCs at 300,000 viable cells per well. Human IL-15 (Peprotech) was added to all wells at final concentration of 10 ng/ml. Plates were incubated at 37° C. and 5% CO2 incubator for a total of 12 days. Media was refreshed every 2-3 days with IL-15 (R&D System, 10 ng/mL final concentration) and IL-2 (R&D systems, 10 IU/mL final concentration).
# (§4) On Day 11, cells were re-stimulated with identical experimental peptide pools or controls, at same concentration as peptide stimulation on Day 1. Protein Inhibitor Cocktail (eBioscience) was added to every well and plate was incubated overnight for 14-16 hours at 37° C. and 5% CO2 incubator. On Day 12, cells were stained for surface and intracellular flow cytometry analysis. The cells were washed with PBS and stained with Live/Dead Fixable Aqua Dead Cell stain (Thermo-Fisher). Following the live/dead stain, cells were blocked using Biotin-Free Fc Receptor Blocker (Accurate Chemical & Scientific Corp). Extracellular cellular flow panel (1 μL/antibody per well in 50 μL) consisted of CD3 PerCP-Cy5.5 (Biolegend), CD4 BV421 (Biolegend), and CD8 APC-Cy7 (Biolegend). After extracellular staining, cells were fixed and permeabilized using Foxp3/Transcription Factor Staining Buffer Set (eBioscience) and stained for intracellular proteins (1:50 dilution) using TNFα FITC (R&D Systems) and IFNγ BV785 (Biolegend). Cells were washed and resuspended in stain buffer, analyzed, and recorded in a BD Celesta flow cytometer.
# (§5) Flow cytometry analysis was conducted on FlowJo v10.6 software. Cells were gated on live, singlet, CD3+, CD4+ and CD8+ T cells. The CD8+ and CD4+ T cells were analyzed for TNFα and IFNγ expression. […]
# CD4+ T cells = assay: Exogenous autologous healthy donor restimulation assay, TNFα and IFNγ production by CD4+ T cells; format: cell-based, human; parameters: Frequency (TNFα+ IFNγ+ CD4 T cells): unit not given here; conditions: donor independent, peptide pool 10 μg/mL, healthy donors; for Fold change (CD4+) vs. DMSO: maximum CD4+ T-cell response (TNFα and IFNγ); for Frequency (TNFα+ IFNγ+ CD4 T cells): maximum CD4+ T-cell response
# Experimental: as §1, §2, §3, §4, §5
Sequence,Fold change (CD8+) vs. DMSO (CD8+ T cells),Frequency (TNFα+ IFNγ+ CD8 T cells) (CD8+ T cells),Immunogenic (yes/no) (CD8+ T cells),Fold change (CD4+) vs. DMSO (CD4+ T cells),Frequency (TNFα+ IFNγ+ CD4 T cells) (CD4+ T cells)
"TAILFTRQQSKALPSLGITNRHGFWAGQGNTVMHGRDSDGKQVKGTVVILAQGAFHQ [AS109, alternative splicing, ADAMTS15]",4.15,0.019,Yes,42.23,0.064
"GNVLVRYVSLYVYYILLN [AS97, alternative splicing, ANKRD28]",13446.33,23.8,Yes,96.12,0.57
"TSTSPKFPVFIFRLVCWVRTELVLR [AS47, alternative splicing, NRG3]",53.5,0.25,Yes,1.907,0.011
"LGRLEEAKSFETEEN [AS121, alternative splicing, OGT]",194.72,0.59,Yes,1.41,0.02
"PQEEVPFRSITTELFPSMC [FUS27, gene fusion TBCEL-> TECTA]",3.38,0.009,Yes,3.3,0.038
"GKSTPPRKEIFDDASP [FUS11, gene fusion GAB1-> SMARCA5]",7.36,0.013,Yes,11.4,0.008
"VAPSGLYYCG [FUS34, gene fusion CLN6-> CALML4]",8.7,0.013,Yes,8.33,0.015
"DLFDEFDNSRLVSRSWFFFYLRNKWNLALGF [AS24, alternative splicing, ST3GAL6]",1300,0.13,Yes,613.88,3.14
"LLPPGQESAIIGPPGMQ [FUS45, gene fusion IFNAR2-> IL10RB]",88.8,0.43,Yes,10.56,0.1
"IENEGGQVRSRPAPS [AS56, alternative splicing, ADGRE5]",5,0.069,Yes,3.71,0.019
"ILAQKKKDELSS [AS93, alternative splicing, TJP1]",1.44,0.014,Yes,9.9,0.015
"MEPTTKRGPGGTMVSAAAPS [FUS52, gene fusion SELPLG-> TMEM119]",46.95,2.09,Yes,6.831,0.02
